Reference: patent US5089623A, “Certain imidate insecticides” (Imperial Chemical Industries Plc, priority 1990, dated 1992)

How the values were obtained:
Assay type in all cases: in vivo
[1] = tested on: Housefly [Musca domestica]; experiment: Housefly insecticidal test (HF); conditions: per 25 female houseflies, 48 hours
[2] = tested on: Tobacco Budworm [Heliothis virescens (Fabricius)]; experiment: Tobacco budworm contact test (TBW-C); conditions: second-instar larvae, 5 days, percent in solution
Procedure: The compounds in Tables 1 and 2 above were tested for insecticidal activity using the following testing procedures. LC50 values, based on the results of these tests and calculated according to dosage-mortality curves, are expressed in Table 3.
Tobacco Budworm [Heliothis virescens (Fabricius)]
(a) Contact: Test compounds were diluted in a 50-50 acetonewater solution. Cotton (Gossypium sp.) cotyledons were immersed in the test solutions for 2-3 seconds and placed on a wire screen to dry. The dried leaves were placed in petri dishes containing a moistened piece of filter paper and infested with 5 second-instar tobacco budworm larvae. The dishes were placed in a high humidity chamber for 5 days, and percent mortality of the larvae recorded. Test concentrations ranged from 0.1% downward. The LC-50 values are expressed below in Table 3 under the heading "TBW-C" in terms of percent of the test compound in the solution.

[3] = tested on: Tobacco Budworm [Heliothis virescens (Fabricius)] eggs; experiment: Tobacco budworm egg test (TBW-E); conditions: percent in solution
[4] = tested on: Cabbage Looper [Trichoplusia ni (Hubner)]; experiment: Cabbage looper test (CL); conditions: second-instar larvae, 3-5 days, percent in solution
[5] = tested on: Aster Leafhopper [Macrosteles fascifrens (Stal)]; experiment: Aster leafhopper test (LH); conditions: adults/nymphs, 48 hours, percent in solution
[6] = tested on: Maize weevil [Sitophilus Zeamais (Motschulsky)]; experiment: Maize weevil test (MW); conditions: adult weevils, treated corn seeds, 48 hours, percent in solution
Outline: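 Adult weevils (10) were placed with four corn seeds that had been dipped 2-3 s in compound dissolved in 50:50 acetone:water, then dried, and held at about 25° C. Mortality was scored at 48 h. LC50 was taken from dosage-mortality curves and expressed as percent compound in solution, from a 0.01% top concentration.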

| SMILES | LC50 HF [1] [µg] | LC50 TBW C [2] [%] | LC50 TBW E [3] [%] | LC50 CL [4] [%] | LC50 LH [5] [%] | LC50 MW [6] [%] |
| --- | --- | --- | --- | --- | --- | --- |
| CC(C)C(=Nc1ccc(F)c(Cl)c1)OCc1cccc(Oc2ccccc2)n1 [Compound 462] | 7 | 0.0025 | 0.04 | 0.001 | 0.001 | > 0.05 |
| C#CCc1c(F)c(F)c(COC(=Nc2ccc(F)c(Cl)c2)C(C)C)c(F)c1F [Compound 520] | 5.5 | 0.00075 | > 0.1 | > 0.1 | 0.0003 | 0.0042 |
| CC(C)C(=Nc1cccc(Cl)c1)OCc1cccc(Oc2ccc(F)cc2)c1 [Compound 194] | 10 | 0.0017 | 0.04 | 0.0005 | 0.0005 | > 0.01 |
| CC(C)C(=Nc1ccc(Cl)c(Cl)c1)OCc1cccc(Oc2ccc(Cl)cc2)n1 [Compound 523] | 22 | 0.0002 | > 0.1 | 0.00015 | > 0.05 | > 0.01 |
| CC(C)C(=Nc1ccc(C(F)(F)F)cc1)OCc1cccc(Oc2ccc(Cl)cc2)n1 [Compound 530] | 9.8 | 0.00005 | 0.005 | 0.00027 | 0.05 | > 0.01 |
| Cc1ccc(N=C(OCc2cccc(Oc3ccccc3)c2)C(C)C)cc1F [Compound 75] | 5 | 0.0075 | 0.01 | 0.0025 | 0.0008 | – |
| CC(C)C(=Nc1ccc(F)c(Cl)c1F)OCc1cccc(Oc2ccc(F)cc2)n1 [Compound 521] | 7.5 | 0.0005 | > 0.1 | 0.00005 | 0.05 | 0.01 |
| CC(C)C(=Nc1cccc(C(F)(F)F)c1)OCc1cccc(Oc2ccc(F)cc2)c1 [Compound 202] | 18 | 0.0007 | > 0.1 | 0.00024 | 0.0003 | > 0.01 |
| CC(C)C(=Nc1ccc(I)cc1)OCc1cccc(Oc2ccc(F)cc2)c1 [Compound 234] | 38 | 0.0013 | 0.09 | 0.00045 | 0.003 | > 0.01 |
| CC(C)C(=Nc1ccc(F)cc1F)OCc1cccc(Oc2ccc(F)cc2)c1 [Compound 209] | 17 | 0.005 | 0.1 | 0.0007 | 0.001 | > 0.01 |
| CC(C)C(=Nc1ccc(F)c(Cl)c1)OCc1cccc(Oc2ccc(C#N)cc2)c1 [Compound 196] | 17 | 0.001 | > 0.1 | 0.0006 | > 0.05 | > 0.01 |
| CCOc1ccc(N=C(OCc2cccc(Oc3ccccc3)c2)C(Cl)Cl)cc1 [Compound 138] | 19 | 0.015 | 0.08 | 0.005 | > 0.05 | > 0.01 |
| CC(C)(C)C(=Nc1ccc(Cl)cc1)OCc1cccc(Oc2ccccc2)c1 [Compound 30] | > 100 | 0.01 | > 0.1 | 0.003 | > 0.05 | > 0.01 |
| COc1ccccc1N=C(OCc1cccc(Oc2ccccc2)c1)C(C)C [Compound 145] | > 100 | 0.05 | > 0.1 | 0.05 | > 0.05 | – |
| CC(C)C(=Nc1ccc(F)c(F)c1)OCc1cccc(Oc2ccc(F)cc2)c1 [Compound 60] | 8 | 0.0009 | 0.017 | 0.001 | 0.002 | 0.0075 |
| CC(C)C(=Nc1ccc(F)c(C(F)(F)F)c1)OCc1ccc(F)c(Oc2ccc(Cl)cc2)c1 [Compound 297] | 23 | 0.00075 | 0.025 | 0.00027 | 0.0001 | 0.0071 |
| CC(C)C(=Nc1ccc(F)c(Br)c1)OCc1cccc(Oc2ccc(F)cc2)c1 [Compound 253] | 10 | 0.0005 | > 0.1 | 0.00013 | 0.003 | > 0.01 |
| CC(C)C(=Nc1ccc2c(c1)OC(C)(C)O2)OCc1cccc(Oc2ccc(F)cc2)c1 [Compound 219] | 50 | 0.004 | 0.027 | 0.00025 | – | > 0.01 |
| CC(C)C(=Nc1ccc(F)c(C(F)(F)F)c1)OCc1cccc(Oc2ccc(F)cc2)c1 [Compound 120] | 14 | 0.0025 | 0.04 | 0.00015 | 0.0003 | > 0.01 |
| CC(C)C(=Nc1c(F)c(F)c(F)c(F)c1F)OCc1cccc(Oc2ccccc2)c1 [Compound 51] | 25 | 0.0025 | 0.067 | 0.001 | 0.001 | – |
